# Laboratory results: patent EP4600243A2, “NOVEL BICYCLIC HETEROCYCLYL COMPOUNDS AND USE THEREOF” (Jeil Pharmaceutical Co., Ltd., priority 2022, dated 2024)
# Biological target: T1, protein-protein interaction between SOS1 and KRAS G12C (Homo sapiens, UniProt Q07889)
# T1 construct: purchased Cisbio 64KRASG12PEG
# T1 sequence (Q07889 1-1333): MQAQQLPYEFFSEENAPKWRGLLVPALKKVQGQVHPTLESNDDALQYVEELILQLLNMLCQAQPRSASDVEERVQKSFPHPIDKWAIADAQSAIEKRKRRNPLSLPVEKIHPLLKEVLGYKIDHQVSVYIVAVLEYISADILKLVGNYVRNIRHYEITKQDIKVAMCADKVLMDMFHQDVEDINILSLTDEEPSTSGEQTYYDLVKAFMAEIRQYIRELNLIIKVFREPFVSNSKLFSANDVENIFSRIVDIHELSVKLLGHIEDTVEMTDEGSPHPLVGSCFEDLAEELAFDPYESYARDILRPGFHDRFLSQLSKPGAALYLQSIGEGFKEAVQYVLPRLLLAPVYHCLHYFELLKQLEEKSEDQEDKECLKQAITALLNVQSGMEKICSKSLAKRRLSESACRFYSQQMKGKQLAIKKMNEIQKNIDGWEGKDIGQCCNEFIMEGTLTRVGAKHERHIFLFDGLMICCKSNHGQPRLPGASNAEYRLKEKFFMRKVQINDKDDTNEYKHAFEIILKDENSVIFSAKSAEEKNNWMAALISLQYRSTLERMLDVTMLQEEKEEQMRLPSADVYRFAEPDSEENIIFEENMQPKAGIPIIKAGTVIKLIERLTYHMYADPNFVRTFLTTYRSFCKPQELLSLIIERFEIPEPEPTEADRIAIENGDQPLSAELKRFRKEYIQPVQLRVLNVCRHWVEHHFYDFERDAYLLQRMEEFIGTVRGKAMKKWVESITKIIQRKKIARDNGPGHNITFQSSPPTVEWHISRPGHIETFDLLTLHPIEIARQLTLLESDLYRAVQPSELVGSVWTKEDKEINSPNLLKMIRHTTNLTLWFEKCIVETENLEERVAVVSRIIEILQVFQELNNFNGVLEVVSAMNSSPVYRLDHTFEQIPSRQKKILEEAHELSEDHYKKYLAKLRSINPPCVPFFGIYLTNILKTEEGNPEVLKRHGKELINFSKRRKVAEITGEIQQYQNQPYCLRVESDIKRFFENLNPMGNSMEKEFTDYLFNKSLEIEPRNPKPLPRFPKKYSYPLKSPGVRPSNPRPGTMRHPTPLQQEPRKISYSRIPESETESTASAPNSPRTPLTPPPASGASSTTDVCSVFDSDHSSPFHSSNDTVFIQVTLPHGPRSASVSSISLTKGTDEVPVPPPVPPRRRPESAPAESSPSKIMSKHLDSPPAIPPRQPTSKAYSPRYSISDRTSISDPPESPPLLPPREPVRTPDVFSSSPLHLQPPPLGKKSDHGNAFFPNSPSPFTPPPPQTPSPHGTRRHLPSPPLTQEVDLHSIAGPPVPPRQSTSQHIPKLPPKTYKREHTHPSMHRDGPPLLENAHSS
# Assay: KRAS::SOS1 HTRF binding analysis (KRAS G12C/SOS1 binding kit)
# Details: compound at 0.1 uM
# Procedure: 1-1. KRAS::SOS1 HTRF binding analysis
# An SOS1 inhibitory ability of the example compounds of the present invention was confirmed by identifying the effect of inhibiting a protein-protein interaction between SOS1 and KRAS G12C of the compounds according to examples of the present invention.
# Specifically, a KRAS G12C/SOS1 binding kit (64KRASG12PEG, Cisbio, France) was purchased and used. 2 µℓ of Tag1-KRAS G12C and 2 µℓ of GTP were premixed and dispensed 4 µl each into a 384 well plate (6007290, PerkinElmer, USA). 2 µℓ of the compound and 4 µℓ of Tag2-SOS1 were placed and then 10 µℓ of premixed Anti-Tag1 XL665 antibody and Anti-Tag2 Tb cryptate antibody was dispensed to each well. The plates were sealed and allowed to react at room temperature for one hour and 40 minutes, and then 665 nm wavelength and 620 nm wavelength were measured using a HTRF® compatible reader (Synergy H4, BioTeK, USA), and the ratio of receptor and donor emission signals for each well was calculated as 665 nm/620 nm×10^4.
# (+++: more than 70 to 100% inhibition, ++: more than 40 to 70% inhibition, +: 0 to 40% inhibition) [Table 4]
row,SMILES,inhibition at 0.1 µM
1,"C[C@@H](Nc1cnnc2ccc(N3CC[C@H](O)C3)cc12)c1cccc(C(F)F)c1F [Example 28, (S)-1-(4-(((R)-1-(3-(difluoromethyl)-2-fluorophenyl)ethyl)amino)cinnolin-6-yl)pyrrolidin-3-ol]",0 to 40%
2,"C[C@@H](Nc1cnnc2ccc(N3C[C@H]4COC[C@H]4C3)cc12)c1cccc(C(F)F)c1F [Example 29, N-((R)-1-(3-(difluoromethyl)-2-fluorophenyl)ethyl)-6-((3 aR,6aS)-tetrahydro-1H-furo[3,4-c]pyrrol-5(3H)-yl)cinnolin-4-amine]",40 to 70%
3,"C[C@@H](Nc1cnnc2ccc(N3CC(O)C3)cc12)c1cccc(C(F)F)c1F [Example 30, (R)-1-(4-((1-(3-(difluoromethyl)-2-fluorophenyl)ethyl)amino)cinnolin-6-yl)azetidin-3-ol]",0 to 40%
4,"COC1CN(c2ccc3nncc(N[C@H](C)c4cccc(C(F)F)c4F)c3c2)C1 [Example 31, (R)-N-(1-(3-(difluoromethyl)-2-fluorophenyl)ethyl)-6-(3-methoxyazetidin-1-yl)cinnolin-4-amine]",0 to 40%
5,"C[C@@H](Nc1cnnc2ccc(N3CC(C)(O)C3)cc12)c1cccc(C(F)F)c1F [Example 32, (R)-1-(4-((1-(3-(difluoromethyl)-2-fluorophenyl)ethyl)amino)cinnolin-6-yl)-3-methylazetidin-3-ol]",0 to 40%
6,"COC1(C)CN(c2ccc3nncc(N[C@H](C)c4cccc(C(F)F)c4F)c3c2)C1 [Example 33, (R)-N-(1-(3-(difluoromethyl)-2-fluorophenyl)ethyl)-6-(3-methoxy-3-methylazetidin-1-yl)cinnolin-4-amine]",0 to 40%
7,"COC1CC2(C1)CN(c1ccc3nncc(N[C@H](C)c4cccc(C(F)F)c4F)c3c1)C2 [Example 34, (R)-N-(1-(3-(difluoromethyl)-2-fluorophenyl)ethyl)-6-(6-methoxy-2-azaspiro[3.3]heptan-2-yl)cinnolin-4-amine]",0 to 40%
8,"C[C@@H](Nc1cnnc2ccc(N[C@@H]3CCOC3)cc12)c1cccc(C(F)F)c1F [Example 35, N4-((R)-1-(3-(difluoromethyl)-2-fluorophenyl)ethyl)-N6-((R)-tetrahydrofuran-3-yl)cinnolin-4,6-diamine]",0 to 40%
9,"C[C@@H](Nc1cnnc2ccc(N[C@H]3CCOC3)cc12)c1cccc(C(F)F)c1F [Example 36, N4-((R)-1-(3-(difluoromethyl)-2-fluorophenyl)ethyl)-N6-((S)-tetrahydrofuran-3-yl)cinnolin-4,6-diamine]",0 to 40%
10,"C[C@@H](Nc1cnnc2ccc(NC3CCOCC3)cc12)c1cccc(C(F)F)c1F [Example 37, (R)-N4-(1-(3-(difluoromethyl)-2-fluorophenyl)ethyl)-N6-(tetrahydro-2H-pyran-4-yl)cinnolin-4,6-diamine]",0 to 40%
11,"C[C@@H](Nc1cnnc2ccc(N[C@@H]3CCN(C)C3)cc12)c1cccc(C(F)F)c1F [Example 38, N4-((R)-1-(3-(difluoromethyl)-2-fluorophenyl)ethyl)-N6-((R)-1-methylpyrrolidin-3-yl)cinnolin-4,6-diamine]",40 to 70%
12,"C[C@@H](Nc1cnnc2ccc(N[C@@H]3CCNC3)cc12)c1cccc(C(F)F)c1F [Example 39, N4-((R)-1-(3-(difluoromethyl)-2-fluorophenyl)ethyl)-N6-((R)-pyrrolidin-3-yl)cinnolin-4,6-diamine]",70 to 100%
13,"C[C@@H](Nc1cnnc2ccc(N[C@H]3CCNC3)cc12)c1cccc(C(F)F)c1F [Example 40, N4-((R)-1-(3-(difluoromethyl)-2-fluorophenyl)ethyl)-N6-((S)-pyrrolidin-3-yl)cinnolin-4,6-diamine]",40 to 70%
14,"C[C@@H](Nc1cnnc2ccc(N3CCN(C(=O)C4COC4)CC3)cc12)c1cccc(C(F)F)c1F [Example 41, (R)-(4-(4-(1-(3-(difluoromethyl)-2-fluorophenyl)ethylamino)cinnolin-6-yl)piperazin-1-yl)(oxetan-3-yl)methanone]",70 to 100%
15,"C[C@@H](Nc1cnnc2ccc(N3CC4CC(C3)O4)cc12)c1cccc(C(F)F)c1 [Example 42, 6-(6-oxa-3-azabicyclo[3.1.1]heptan-3-yl)-N-((R)-1-(3-(difluoromethyl)phenyl)ethyl)cinnolin-4-amine]",0 to 40%
16,"C[C@@H](Nc1cnnc2ccc(N3CCC(C)(O)CC3)cc12)c1cccc(C(F)F)c1 [Example 43, (R)-1-(4-((1-(3-(difluoromethyl)phenyl)ethyl)amino)cinnolin-6-yl)-4-methylpiperidin-4-ol]",0 to 40%
17,"C[C@@H](Nc1cnnc2ccc(N3C[C@H]4C[C@@H]3CO4)cc12)c1cccc(C(F)F)c1 [Example 44, 6-((1R,4R)-2-oxa-5-azabicyclo[2.2.1]heptan-5-yl)-N-((R)-1-(3-(difluoromethyl)phenyl)ethyl)cinnolin-4-amine]",0 to 40%
18,"C[C@@H](Nc1cnnc2ccc(N3CC(C)(O)C3)cc12)c1cccc(C(F)F)c1 [Example 45, (R)-1-(4-((1-(3-(difluoromethyl)phenyl)ethyl)amino)cinnolin-6-yl)-3-methylazetidin-3-ol]",0 to 40%
19,"C[C@@H](Nc1cnnc2ccc(N3CC4CC(C3)O4)cc12)c1cccc(C(F)(F)F)c1 [Example 47, 6-(6-oxa-3-azabicyclo[3.1.1]heptan-3-yl)-N-((R)-1-(3-(trifluoromethyl)phenyl)ethyl)cinnolin-4-amine]",0 to 40%
20,"Cc1c([C@@H](C)Nc2cnnc3ccc(N4CC5CC(C4)O5)cc23)cccc1C(F)(F)F [Example 48, 6-(6-oxa-3-azabicyclo[3.1.1]heptan-3-yl)-N-((R)-1-(2-methyl-3-(trifluoromethyl)phenyl)ethyl)cinnolin-4-amine]",0 to 40%
21,"Cc1c([C@@H](C)Nc2cnnc3ccc(N4CC5(CN(C)C5)C4)cc23)cccc1C(F)(F)F [Example 49, (R)-N-(1-(2-methyl-3-(trifluoromethyl)phenyl)ethyl)-6-(6-methyl-2,6-diazaspiro[3.3]heptan-2-yl)cinnolin-4-amine]",0 to 40%
22,"Cc1c(C#N)cccc1[C@@H](C)Nc1cnnc2ccc(N3CC4CC(C3)O4)cc12 [Example 50, 3-((1R)-1-((6-(6-oxa-3-azabicyclo[3.1.1]heptan-3-yl)cinnolin-4-yl)amino)ethyl)-2-methylbenzonitrile]",0 to 40%
23,"Cc1c(C#N)cccc1[C@@H](C)Nc1cnnc2ccc(N3CCC(C)(O)CC3)cc12 [Example 51, (R)-3-(1-((6-(4-hydroxy-4-methylpiperidin-1-yl)cinnolin-4-yl)amino)ethyl)-2-methylbenzonitrile]",0 to 40%
24,"Cc1c(C#N)cccc1[C@@H](C)Nc1cnnc2ccc(C3=CCN(C)CC3)cc12 [Example 52, (R)-2-methyl-3-(1-(6-(1-methyl-1,2,3,6-tetrahydropyridin-4-yl)cinnolin-4-ylamino)ethyl)benzonitrile]",0 to 40%
25,"C[C@@H](Nc1cnnc2ccc(C3=CCN(C)CC3)cc12)c1cccc(C#N)c1 [Example 53, (R)-3-(1-(6-(1-methyl-1,2,3,6-tetrahydropyridin-4-yl)cinnolin-4-ylamino)ethyl)benzonitrile]",0 to 40%
26,"C[C@@H](Nc1cnnc2ccc(N[C@@H]3CCNC3)cc12)c1cccc(C#N)c1 [Example 54, 3-((R)-1-(6-((R)-pyrrolidin-3-ylamino)cinnolin-4-ylamino)ethyl)benzonitrile]",0 to 40%
